Test results published in US20070082905A1, “PHARMACEUTICAL COMPOSITIONS COMPRISING N-TRIAZOLYMETHYL-PIPERAZINE COMPOUNDS AND METHODS OF USING SAME” (priority 2005, published 2007).
Structures can show the parent of a compound that is named as a salt.

Columns and labels:
[1] = Pharmacokinetics after a single oral dose in healthy male volunteers (plasma, HPLC-MS/MS); format: in vivo, human
Method: (§1) The pharmacokinetics after a single oral dose of the dihydrochloride salt of Compound D ((2R)-1-[3,5-bis(trifluoromethyl)benzoyl]-2-(1H-indol-3-ylmethyl)-4-{[5-(morpholinomethyl)-2H-1,2,3-triazol-4-yl]methyl}piperazine-dihydrochloride) were assessed in healthy male volunteers. Pharmacodynamic effects were also evaluated by measuring the antagonism of Substance P-induced venodialation using the hand vein compliance technique.
Nineteen healthy male non-smokers participated in a randomized, double-blind, placebo-controlled, cross-over study after each gave written informed consent. Only healthy volunteers without concurrent drug use were included in the study. […] Further exclusion criteria were: a history of allergies, known conditions causing endothelial dysfunction as diabetes, hyperlipidemia, arterial hypertension, hyperhomocysteinemia, and smoking, regular medication or treatment with drugs within the last 2 weeks, acute or chronic illness, and drug or alcohol abuse.
Next, Compound D as described herein (250 mg and 25 mg quinine sulphate) or placebo (25 mg quinine sulphate), both dissolved in water for injection and mint syrup, were administered as an oral solution. Quinine was added for blinding to mimic the bitter taste of Compound D and mint syrup to disguise the slightly yellowish colour as well as bitter taste. The infusion of Substance P (same dose as before study drug administration) was repeated at the following time points: 0.5 h, 1.25 h, 2 h, 2.75 h, 3.5 h, and 4.25 h after dosing. Each peptide application was separated by a wash-out phase of 45 min to avoid the occurrence of tolerance.
Venous blood samples for Compound D were taken 0.25 h before as well as 0.25 h, 0.5 h, 0.75 h, 1 h, 1.25 h, 2.0 h, 2.75 h, 3.5 h, 4.25 h, 6 h, 8 h, 12 h, and 24 h after administration. Blood was drawn into vials containing dry heparin, immediately stored on ice (+4° C.) and plasma was separated within 30 min at 3500 rpm for 10 min. The samples were stored at −20° C. until analysis. When time points of pharmacodynamic (hand vein compliance method) and pharmacokinetic measurements coincided the pharmacodynamic measurements were first finished before blood samples were taken, accepting a delay for pharmacokinetic sampling of about 5 min.
The plasma samples were then analyzed by extracting Compound D and its internal standard from plasma with diethylether, concentration and injection into an HPLC system with MS/MS detection. Accuracy and precision were within specifications; bias was <12%; the inter-day coefficient of variation was <14%. The lower limit of quantification was set at 0.2 ng/ml.
(§2) Source verification of all data documented in case report forms was performed by an independent clinical monitor. Nineteen individuals were randomized and thus included in the safety analysis. Only the randomized participants who completed both dosing sessions according to protocol were included in the pharmacodynamic analysis (n=17). Two participants had to be withdrawn due to methodological problems during hand vein measurements. One of these two was exposed to Compound D and complete pharmacokinetic data were obtained leading to data sets of 18 participants for pharmacokinetic analysis.
The area under the effect-time curve (AUCe) was calculated according to the trapezoidal rule. Statistical analysis of AUCe was performed using a mixed model analysis of variance (ANOVA) including the factors subject, sequence, period, and treatment. Pharmacokinetic calculations were performed using WinNonlin Professional 4.0.1 for Windows (Pharsight Corporation, Mountain View, Calif. 94040, USA). Differences in vital signs and dose-rates were assessed with Wilcoxon signed rank test, unless stated otherwise. Data are expressed as mean±SEM. A p-value of less than 0.05 was considered significant.

[2] = target: T1, NK-1 receptor (Homo sapiens, UniProt P25103); assay: Antagonism of Substance P-induced venodilation, dorsal hand vein compliance technique; format: in vivo
T1 construct: measuring the antagonism of Substance P-induced venodialation using the hand vein compliance technique; from tissue; host or cells: dorsal hand vein of healthy male volunteers, in vivo
T1 sequence (P25103 whole entry): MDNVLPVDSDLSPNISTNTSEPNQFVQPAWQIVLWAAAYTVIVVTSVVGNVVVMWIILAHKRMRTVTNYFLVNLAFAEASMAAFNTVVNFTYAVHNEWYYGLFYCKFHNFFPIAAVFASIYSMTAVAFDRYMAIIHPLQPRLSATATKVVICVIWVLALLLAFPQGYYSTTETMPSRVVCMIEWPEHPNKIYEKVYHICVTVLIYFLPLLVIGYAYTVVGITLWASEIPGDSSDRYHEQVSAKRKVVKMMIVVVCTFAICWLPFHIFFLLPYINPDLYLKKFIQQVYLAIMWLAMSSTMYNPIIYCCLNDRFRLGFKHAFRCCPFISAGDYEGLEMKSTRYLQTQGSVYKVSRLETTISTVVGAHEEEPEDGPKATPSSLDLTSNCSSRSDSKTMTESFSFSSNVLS
Method: as §1
The participants abstained from alcohol for at least 24 hours and from methylxanthine-containing beverages for at least 12 hours before the measurements of hand vein compliance were made. […] Venodilator responses were investigated in a quiet room maintained at a constant temperature between 23 and 25° C. using the dorsal hand vein compliance technique according to Aellig (See W. H. Aellig, A new technique for recording compliance of human hand veins. 1981. Br J Clin Pharmacol 2004; 58:S768-74) with modifications as described previously (Fricker R, et al., Endothelial venodilator response in carriers of genetic polymorphisms involved in NO synthesis and degradation. Br J Clin Pharmacol 2004; 58:169-77).
Hand vein compliance measurements started in the morning and the participants were asked to remain in a supine position throughout the study. The hand under investigation was placed on a vacuum pillow sloping upwards at an angle of 30° from horizontal. All vasoactive compounds were administered through a butterfly needle at a constant flow rate (0.25 ml·min^−1) into the vein under investigation. In each participant, the same hand vein was used for both study phases. Changes of the diameter of the vein were recorded using a linear variable differential transformer (Schaevitz®, Type 100 MHR, Pennsauken, N.J., USA) with a freely movable core (weight 0.5 g) resting over the centre of the vein under investigation. Transformer signals were amplified by a Schaevitz® CAS series signal conditioner and the output was recorded on a strip-chart recorder (LKB 2210 recorder, LKB Produkter AB®, Bromma, Sweden) at a paper speed of 0.5 cm·min^−1. The difference between the position of the core before and during inflation of a sphygmomanometer cuff on the same upper arm to 40 mmHg gave a measure of the diameter changes under a given congestion pressure. Peak heights on the strip-chart recorder were linearly proportional to the movement of the core and were measured manually in units according to standard operating procedures.
After having installed the tripod for hand vein compliance technique and having established a stable initial baseline with […] defined as 100% relaxation, increasing dose-rates of the selective α1-adrenoceptor agonist phenylephrine (Neo-Synephrine®, Abbott Laboratories, North Chicago, USA; dosages: 1.25−≦8000 ng·min^−1) were locally infused to constrict the vein by about 80%. This preconstriction baseline was defined as 0%, and the effect of subsequently administered vasodilators was expressed in percentage changes from the difference between the initial baseline diameter during normal saline and the diameter during stable preconstriction.
Once preconstriction was stable, Substance P (Calbiochem/Novabiochem AG, Läufelfingen, Switzerland) was co-administered until the maximal venodilation was reached (approximately 7-10 minutes). To prevent the peptide from sticking to tubing and syringes, substance P was dissolved in a 4% gelatine solution. Based on the experience of previous experiments in this setting, a Substance P dose rate of (1.5 pmol/min) was selected. If a participant reacted with less than 50% venodilation to the dose of 1.5 pmol/min, the dose was doubled to 3 pmol/min.
Next, Compound D as described herein (250 mg and 25 mg quinine sulphate) or placebo (25 mg quinine sulphate), both dissolved in water for injection and mint syrup, were administered as an oral solution. […]

[3] = Safety assessment (ECG, pulse rate, blood pressure, laboratory, adverse events) in healthy male volunteers; format: in vivo, human
Method: Dose-rates administered locally into the hand vein were intended not to result in any systemic effects which were monitored by repeated measurements of heart rate and blood pressure. Blood pressure was taken before and after every infusion of drugs or solvents (sodium chloride, phenylephrine, Substance P); a 12-lead ECG was monitored continuously up to the end of the hand vein compliance measurements.
Safety was assessed by measuring ECG, pulse rate, blood pressure, haematology, blood chemistry, urinalysis, and by occurrence of adverse events.
as §2

[4] = 250 mg oral, among participants

Structure (SMILES): O=C(c1cc(C(F)(F)F)cc(C(F)(F)F)c1)N1CCN(Cc2n[nH]nc2CN2CCOCC2)C[C@H]1Cc1c[nH]c2ccccc12 [Compound D, (2R)-1-[3,5-bis(trifluoromethyl)benzoyl]-2-(1H-indol-3-ylmethyl)-4-{[5-(morpholinomethyl)-2H-1,2,3-triazol-4-yl]methyl}piperazine-dihydrochloride]
- time to peak plasma concentration ([1]; 250 mg oral solution, single dose, 18 healthy participants, mean±SEM): ≤ 47 ± 3 min
- plasma detectability 24 h after dosing (terminal phase) ([1]; 250 mg oral, 24 h after dosing, lower limit of quantification 0.2 ng/ml): still detectable in low concentrations in all participants
- ratio between maximal and minimal value for AUC (inter-individual variability) [1, 4]: 6.3
- ratio between maximal and minimal value for Cmax (inter-individual variability) [1, 4]: 6.5
- half-life ([1]; male, human, plasma, 250 mg oral solution, single dose, 18 healthy participants, mean±SEM): 594 ± 96 min
- AUC(0-inf) ([1]; male, human, plasma, 250 mg oral solution, single dose, 18 healthy participants, mean±SEM, read-out: mean AUC0-∞): 183 ± 22 ng·h/mL
- Cmax ([1]; male, human, plasma, 250 mg oral solution, single dose, 18 healthy participants, mean±SEM, read-out: peak plasma concentration (Cmax)): 77 ± 9 ng/mL
- response to SNP (sodium nitroprusside) at the end of the experiment ([2]; 2 μg/min SNP into hand vein after last Substance P infusion, not different from placebo (p=0.69)): 92±9%
- maximum antagonizing effect (% antagonism of Substance P-induced venodilation) ([2]; 250 mg oral, 17 healthy participants, mean±SEM, 95% CI 78, 111): 95±8%
- Substance P-induced venodilation after administration (versus placebo) ([2]; 250 mg oral, 17 healthy participants, p<0.001 vs placebo): markedly decreased
- time of maximum antagonizing effect (mean) ([2]; 250 mg oral, 17 participants, mean±SEM, 95% CI 0.96, 1.98): 1.47 ± 0.24 h
- mean AUCe (area under the effect-time curve) ([2]; 250 mg oral, 17 participants, mean±SEM, 95% CI 198, 358, p<0.001 vs placebo): 278±67 %·h
- time of maximum antagonizing effect (median) ([2]; 250 mg oral, 17 participants, median): 1.25 h
- persistence of antagonistic effect relative to plasma concentration ([2]; 250 mg oral, up to 4.25 h after dosing, counter-clockwise hysteresis): antagonistic effect persisted throughout the study while plasma concentrations declined
- serious adverse events ([3]; 250 mg oral, 19 participants in safety analysis): No serious adverse event occurred
- changes in heart rate, blood pressure, or ECG parameters ([3]; 250 mg oral, single dose): Neither Compound D nor placebo induced significant changes
- tolerability ([3]; 250 mg oral, single dose): well tolerated in all participants
- adverse events possibly related to the study drug (number) ([3]; 250 mg oral, mild headache, severe headache, cloudy urine, all resolved): 3
- heart rate ([3]; 4.5 h after administration (baseline 60±2; p=0.14)): 63±2 beats/min
- diastolic blood pressure ([3]; 4.5 h after administration (baseline 68±3; p=0.12)): 72±2 mmHg
- systolic blood pressure ([3]; 4.5 h after administration (baseline 124±3; p=0.10)): 127±2 mmHg
